Reference: ChEMBL document CHEMBL2029314, “Discovery of HIV fusion inhibitors targeting gp41 using a comprehensive α-helix mimetic library” (Bioorg Med Chem Lett, 2012)

Columns and labels:
[1] = Displacement of C18-Aib-lucifer yellow from HIV1 envelope glycoprotein gp41 Fe(env2.0)3 by fluorescence assay; design: species or system Human immunodeficiency virus 1
[2] = Inhibition of HIV1 envelope glycoprotein 41-mediated membrane fusion between virus-transfected human HL2/3 cells and human TZM-bl cells after 6 hrs by luciferase reporter assay; assay type: cell-based; conditions: Human immunodeficiency virus 1, TZM-bl

Row | SMILES | Ki [1] [µM] | IC50 [2] [µM]
1 | N[C@@H](CC(=O)O)C(=O)Nc1ccc(C(=O)N[C@H](CC(=O)O)Cc2c[nH]c3ccccc23)cc1OCCc1c[nH]c2ccccc12 | 0.6 | 
2 | CSCC[C@H](N)C(=O)Nc1ccc(C(=O)N[C@@H](Cc2c[nH]c3ccccc23)C(=O)O)cc1OCCc1c[nH]c2ccccc12 | < 10 | 
3 | N[C@@H](CC(=O)O)C(=O)Nc1ccc(C(=O)NCCc2c[nH]c3ccccc23)cc1OCCc1c[nH]c2ccccc12 | 18 | 
4 | CC(C)C[C@H](NC(=O)c1ccc(NC(=O)[C@@H](N)CO)c(OCCc2c[nH]c3ccccc23)c1)C(=O)O | < 10 | 
5 | CC(C)C[C@H](NC(=O)c1ccc(NC(=O)[C@@H](N)CC(=O)O)c(OCCc2c[nH]c3ccccc23)c1)C(=O)O | < 10 | 
6 | CC(C)C[C@H](NC(=O)c1ccc(NC(=O)[C@@H](N)Cc2c[nH]c3ccccc23)c(OCCc2c[nH]c3ccccc23)c1)C(=O)O |  | 5
7 | CC(C)C[C@H](NC(=O)c1ccc(NC(=O)[C@@H](N)CC(N)=O)c(OCCc2c[nH]c3ccccc23)c1)C(=O)O | < 10 | 
8 | C[C@H](N)C(=O)Nc1ccc(C(=O)N[C@@H](Cc2c[nH]c3ccccc23)C(=O)O)cc1OCCc1c[nH]c2ccccc12 | < 10 | 
9 | CC[C@H](N)C(=O)Nc1ccc(C(=O)N[C@@H](Cc2c[nH]c3ccccc23)C(=O)O)cc1OCCc1c[nH]c2ccccc12 | < 10 | 
10 | CC(C)[C@H](N)C(=O)Nc1ccc(C(=O)N[C@@H](Cc2c[nH]c3ccccc23)C(=O)O)cc1OCCc1c[nH]c2ccccc12 | < 10 | 
11 | CC(C)C[C@H](N)C(=O)Nc1ccc(C(=O)N[C@@H](Cc2c[nH]c3ccccc23)C(=O)O)cc1OCCc1c[nH]c2ccccc12 | < 10 | 
12 | CC[C@H](C)[C@H](N)C(=O)Nc1ccc(C(=O)N[C@@H](Cc2c[nH]c3ccccc23)C(=O)O)cc1OCCc1c[nH]c2ccccc12 | < 10 | 
13 | C[C@@H](O)[C@H](N)C(=O)Nc1ccc(C(=O)N[C@@H](Cc2c[nH]c3ccccc23)C(=O)O)cc1OCCc1c[nH]c2ccccc12 | < 10 | 
14 | NC(=O)C[C@H](N)C(=O)Nc1ccc(C(=O)N[C@@H](Cc2c[nH]c3ccccc23)C(=O)O)cc1OCCc1c[nH]c2ccccc12 | 0.8 | 6
15 | COC(=O)[C@H](Cc1c[nH]c2ccccc12)NC(=O)c1ccc(NC(=O)[C@@H](N)CC(=O)O)c(OCCc2c[nH]c3ccccc23)c1 | 21 | 
16 | O=C(O)CCC(=O)Nc1ccc(C(=O)N[C@@H](Cc2c[nH]c3ccccc23)C(=O)O)cc1OCCc1c[nH]c2ccccc12 | 0.6 | 
17 | CC(C)[C@H](NC(=O)c1ccc(N)c(OCc2ccc(O)cc2)c1)C(=O)O |  | < 30
18 | CC[C@H](NC(=O)c1ccc(N)c(OCc2ccc(O)cc2)c1)C(=O)O |  | < 30
19 | CSCC[C@H](NC(=O)c1ccc(N)c(OCc2ccc(O)cc2)c1)C(=O)O |  | < 30
20 | Nc1ccc(C(=O)N[C@@H](CO)C(=O)O)cc1OCc1ccc(O)cc1 |  | < 30
21 | NC(=O)C[C@H](NC(=O)c1ccc(N)c(OCc2ccc(O)cc2)c1)C(=O)O |  | < 30
22 | CC[C@H](C)[C@H](NC(=O)c1ccc(N)c(OCCc2c[nH]c3ccccc23)c1)C(=O)O |  | < 30
23 | CC(C)C[C@H](NC(=O)c1ccc(N)c(OCCc2c[nH]c3ccccc23)c1)C(=O)O |  | < 30
24 | Nc1ccc(C(=O)N[C@@H](CCc2ccccc2)C(=O)O)cc1OCCc1c[nH]c2ccccc12 |  | < 30
25 | Nc1ccc(C(=O)N[C@@H](Cc2ccc(Cl)cc2)C(=O)O)cc1OCCc1c[nH]c2ccccc12 |  | < 30
26 | Nc1ccc(C(=O)N[C@@H](Cc2c[nH]c3ccccc23)C(=O)O)cc1OCCc1c[nH]c2ccccc12 |  | < 30
27 | CC[C@H](C)[C@H](NC(=O)c1ccc(N)c(OCc2ccc(Cl)cc2)c1)C(=O)O |  | < 30
28 | CC[C@H](C)[C@H](NC(=O)c1ccc(N)c(OCc2ccc3ccccc3c2)c1)C(=O)O |  | < 30
29 | CC(C)C[C@H](NC(=O)c1ccc(N)c(OCc2ccc3ccccc3c2)c1)C(=O)O |  | < 30

Further lines, results first:

Row | Ki [1] [µM] | IC50 [2] [µM] | SMILES
30 | < 25 |  | CSCC[C@H](N)C(=O)Nc1ccc(C(=O)N[C@@H](CCc2ccccc2)C(=O)O)cc1OCc1ccc(Cl)cc1
31 | < 25 |  | N[C@@H](CCc1ccccc1)C(=O)Nc1ccc(C(=O)N[C@@H](CCc2ccccc2)C(=O)O)cc1OCc1ccc(Cl)cc1
32 | < 25 |  | N[C@@H](Cc1ccc(O)cc1)C(=O)Nc1ccc(C(=O)N[C@@H](CCc2ccccc2)C(=O)O)cc1OCc1ccc(Cl)cc1
33 | < 25 |  | N[C@@H](Cc1c[nH]c2ccccc12)C(=O)Nc1ccc(C(=O)N[C@@H](CCc2ccccc2)C(=O)O)cc1OCc1ccc(Cl)cc1
34 | < 10 |  | N[C@@H](CC(=O)O)C(=O)Nc1ccc(C(=O)N[C@@H](Cc2c[nH]c3ccccc23)C(=O)O)cc1OCCc1c[nH]c2ccccc12
35 | < 25 |  | CC[C@H](C)[C@H](N)C(=O)Nc1ccc(C(=O)N[C@@H](CCc2ccccc2)C(=O)O)cc1OCc1ccc(Cl)cc1
36 | < 10 |  | N[C@@H](Cc1ccc2ccccc2c1)C(=O)Nc1ccc(C(=O)N[C@@H](Cc2c[nH]c3ccccc23)C(=O)O)cc1OCCc1c[nH]c2ccccc12
37 | < 10 |  | CSCC[C@H](N)C(=O)Nc1ccc(C(=O)N[C@@H](CCc2ccccc2)C(=O)O)cc1OCc1ccc2ccccc2c1
38 | < 10 |  | CC(C)C[C@H](NC(=O)c1ccc(NC(=O)[C@@H](N)Cc2ccc3ccccc3c2)c(OCCc2c[nH]c3ccccc23)c1)C(=O)O
39 | < 10 |  | CC(C)C[C@H](N)C(=O)Nc1ccc(C(=O)N[C@@H](CCc2ccccc2)C(=O)O)cc1OCc1ccc2ccccc2c1
40 | < 10 |  | CC[C@H](C)[C@H](N)C(=O)Nc1ccc(C(=O)N[C@@H](CCc2ccccc2)C(=O)O)cc1OCc1ccc2ccccc2c1
41 | < 10 |  | N[C@@H](CC(=O)O)C(=O)Nc1ccc(C(=O)N[C@@H](CCc2ccccc2)C(=O)O)cc1OCc1ccc2ccccc2c1
42 | < 10 |  | N[C@@H](Cc1ccc(O)cc1)C(=O)Nc1ccc(C(=O)N[C@@H](CCc2ccccc2)C(=O)O)cc1OCc1ccc2ccccc2c1
43 | < 10 |  | N[C@@H](Cc1c[nH]c2ccccc12)C(=O)Nc1ccc(C(=O)N[C@@H](CCc2ccccc2)C(=O)O)cc1OCc1ccc2ccccc2c1
44 | < 10 |  | N[C@@H](CCc1ccccc1)C(=O)Nc1ccc(C(=O)N[C@@H](CCc2ccccc2)C(=O)O)cc1OCc1ccc2ccccc2c1
45 | < 10 |  | N[C@@H](CO)C(=O)Nc1ccc(C(=O)N[C@@H](Cc2c[nH]c3ccccc23)C(=O)O)cc1OCCc1c[nH]c2ccccc12
46 | < 10 |  | N[C@@H](Cc1ccccc1)C(=O)Nc1ccc(C(=O)N[C@@H](Cc2c[nH]c3ccccc23)C(=O)O)cc1OCCc1c[nH]c2ccccc12
47 | < 10 |  | N[C@@H](Cc1ccc(O)cc1)C(=O)Nc1ccc(C(=O)N[C@@H](Cc2c[nH]c3ccccc23)C(=O)O)cc1OCCc1c[nH]c2ccccc12
48 | 0.7 | 8 | COc1ccc(C[C@H](N)C(=O)Nc2ccc(C(=O)N[C@@H](Cc3c[nH]c4ccccc34)C(=O)O)cc2OCCc2c[nH]c3ccccc23)cc1
49 | < 10 |  | N[C@@H](Cc1c[nH]c2ccccc12)C(=O)Nc1ccc(C(=O)N[C@@H](Cc2c[nH]c3ccccc23)C(=O)O)cc1OCCc1c[nH]c2ccccc12
50 | 50 |  | COc1ccc(C[C@H](N)C(=O)Nc2ccc(C(=O)N[C@H](CC(=O)O)Cc3c[nH]c4ccccc34)cc2OCCc2c[nH]c3ccccc23)cc1
51 | 100 |  | COc1ccc(C[C@H](N)C(=O)Nc2ccc(C(=O)N[C@H](CCC(=O)O)Cc3c[nH]c4ccccc34)cc2OCCc2c[nH]c3ccccc23)cc1
52 |  | < 30 | Nc1ccc(C(=O)N[C@@H](Cc2ccc(O)cc2)C(=O)O)cc1OCc1ccc(O)cc1
53 |  | < 30 | Nc1ccc(C(=O)N[C@@H](Cc2ccc3ccccc3c2)C(=O)O)cc1OCc1ccc(O)cc1
54 |  | < 30 | Nc1ccc(C(=O)N[C@@H](Cc2ccc3ccccc3c2)C(=O)O)cc1OCc1ccc(Cl)cc1
55 |  | < 30 | Nc1ccc(C(=O)N[C@@H](CCc2ccccc2)C(=O)O)cc1OCc1ccc2ccccc2c1
56 |  | < 30 | Nc1ccc(C(=O)N[C@@H](CC(=O)O)C(=O)O)cc1OCc1ccc2ccccc2c1
57 |  | < 30 | Nc1ccc(C(=O)N[C@@H](Cc2ccccc2)C(=O)O)cc1OCc1ccc2ccccc2c1
58 |  | < 30 | Nc1ccc(C(=O)N[C@@H](Cc2ccc(O)cc2)C(=O)O)cc1OCc1ccc2ccccc2c1
59 |  | < 30 | COc1ccc(C[C@H](NC(=O)c2ccc(N)c(OCc3ccc4ccccc4c3)c2)C(=O)O)cc1
